Molecular target: T1, MAGL (recombinant wild-type) (Homo sapiens, UniProt Q99685)
T1 sequence (Q99685 1-303): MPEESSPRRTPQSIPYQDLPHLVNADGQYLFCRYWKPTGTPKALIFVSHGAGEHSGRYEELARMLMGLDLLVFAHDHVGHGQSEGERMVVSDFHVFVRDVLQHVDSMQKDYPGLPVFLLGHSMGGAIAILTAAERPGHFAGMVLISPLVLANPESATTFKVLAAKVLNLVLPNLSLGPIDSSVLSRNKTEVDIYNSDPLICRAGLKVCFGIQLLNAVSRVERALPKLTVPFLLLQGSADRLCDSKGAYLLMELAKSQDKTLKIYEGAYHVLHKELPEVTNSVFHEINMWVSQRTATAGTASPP
Test: 4-NPA assay: MAGL inhibitory activity by hydrolysis of 4-nitrophenylacetate, absorbance at 405 nm
Type: biochemical
Conditions: 4-NPA assay (values without footnote [a])
Description: Compounds were profiled for MAGL inhibitory activity by measuring the enzymatic activity of MAGL by following the hydrolysis of 4-nitorphenylacetate resulting in 4-nitrophenol, which absorbs at 405-412 nm (G. G. Muccioli, G. Labar, D M. Lambert, Chem. Bio. Chem. 2008, 9, 2704-2710). This assay is hereinafter abbreviated “4-NPA assay”.
The 4-NPA assay was carried out in 384 well assay plates (black with clear bottom, non-binding surface treated, Corning Ref. 3655) in a total volume of 40 μL. Compound dilutions were made in 100% DMSO (VWR Chemicals 23500.297) in a polypropylene plate in 3-fold dilution steps to give a final concentration range in the assay from 25 μM to 1.7 nM. 1 μL compound dilutions (100% DMSO) were added to 19 μL MAGL (recombinant wild-type) in assay buffer (50 mM TRIS (GIBCO, 15567-027), 1 mM EDTA (Fluka, 03690-100 ml)). The plate was shaked for 1 min at 2000 rpm (Variomag Teleshake) and then incubated for 15 min at RT. To start the reaction, 20 μL 4-Nitrophenlyacetate (Sigma N-8130) in assay buffer with 6% EtOH was added. The final concentrations in the assay were 1 nM MAGL and 300 μM 4-Nitrophenylacetate. After shaking (1 min, 2000 rpm) and 5 min incubation at RT, the absorbance at 405 nm was measured for a first time (Molecular Devices, SpectraMax Paradigm). A second measurement was then done after incubation for 80 min at RT. From the two measurements, the slope was calculated by substracting the first from the second measurement.

IC50 [nM] | SMILES
59 | Cc1[nH]c2ccc(Cl)cc2c1C1CCN(C(=O)c2ccc3c(c2)NC(=O)CO3)CC1 [Example 47, 6-[4-(5-chloro-2-methyl-1H-indol-3-yl)piperidine-1-carbonyl]-4H-1,4-benzoxazin-3-one]
549 | O=C1COc2ccc(C(=O)N3CCC(c4nnc(-c5ccccc5)o4)CC3)cc2N1 [Example 48, 6-[4-(5-phenyl-1,3,4-oxadiazol-2-yl)piperidine-1-carbonyl]-4H-1,4-benzoxazin-3-one]
5540 | O=C1COc2ccc(C(=O)N3CCC(n4cnc5ccccc54)CC3)cc2N1 [Example 49, 6-[4-(benzimidazol-1-yl)piperidine-1-carbonyl]-4H-1,4-benzoxazin-3-one]
150 | O=C1COc2ccc(C(=O)N3CCC(c4noc5cc(C(F)(F)F)ccc45)CC3)cc2N1 [Example 50, 6-[4-[6-(trifluoromethyl)-1,2-benzoxazol-3-yl]piperidine-1-carbonyl]-4H-1,4-benzoxazin-3-one]
370 | O=C1COc2ccc(C(=O)N3CCC(c4noc5cc(F)ccc45)CC3)cc2N1 [Example 51, 6-[4-(6-fluoro-1,2-benzoxazol-3-yl)piperidine-1-carbonyl]-4H-1,4-benzoxazin-3-one]
140 | O=C1COc2ccc(C(=O)N3CCC(c4noc5ccc(F)cc45)CC3)cc2N1 [Example 52, 6-[4-(5-fluoro-1,2-benzoxazol-3-yl)piperidine-1-carbonyl]-4H-1,4-benzoxazin-3-one]
6.3 | O=C1COc2ccc(C(=O)N3CCC(C4(c5ccc(Cl)cc5)CCCO4)CC3)cc2N1 (centres unmarked) [Example 53, 6-[4-[2-(4-chlorophenyl)oxolan-2-yl]piperidine-1-carbonyl]-4H-1,4-benzoxazin-3-one]
7.3 | O=C1COc2ccc(C(=O)N3CCC(C4(c5ccc(Br)cc5)OCCO4)CC3)cc2N1 [Example 54, 6-[4-[2-(4-bromophenyl)-1,3-dioxolan-2-yl]piperidine-1-carbonyl]-4H-1,4-benzoxazin-3-one]
68 | O=C1COc2ccc(C(=O)N3CCC(C4(c5ccccc5)CC4)CC3)cc2N1 [Example 55, 6-[4-(1-phenylcyclopropyl)piperidine-1-carbonyl]-4H-1,4-benzoxazin-3-one]
1400 | O=C1COc2ccc(C(=O)N3CCC(c4cccc(Cl)c4)C3)cc2N1 (centres unmarked) [Example 56, 6-[3-(3-chlorophenyl)pyrrolidine-1-carbonyl]-4H-1,4-benzoxazin-3-one]
3020 | O=C1COc2ccc(C(=O)N3CCC(c4nccc(C(F)(F)F)n4)C3)cc2N1 (centres unmarked) [Example 57, 6-[3-[4-(trifluoromethyl)pyrimidin-2-yl]pyrrolidine-1-carbonyl]-4H-1,4-benzoxazin-3-one]
0.8 | COc1ccc(C(c2ccccc2)C2CCN(C(=O)c3ccc4c(c3)NC(=O)CO4)CC2)cc1 (centres unmarked) [Example 58, 6-[4-[(4-methoxyphenyl)-phenyl-methyl]piperidine-1-carbonyl]-4H-1,4-benzoxazin-3-one]
0.5 | Cc1cccc(C(c2ccccc2)C2CCN(C(=O)c3ccc4c(c3)NC(=O)CO4)CC2)c1 (centres unmarked) [Example 59, 6-[4-[m-tolyl(phenyl)methyl]piperidine-1-carbonyl]-4H-1,4-benzoxazin-3-one]
0.62 | O=C1COc2ccc(C(=O)N3CCC(C(c4ccccc4)n4ccc5ccccc54)CC3)cc2N1 (centres unmarked) [Example 60, 6-[4-[indol-1-yl(phenyl)methyl]piperidine-1-carbonyl]-4H-1,4-benzoxazin-3-one]
0.24 | O=C1COc2ccc(C(=O)N3CCC([C@H](c4ccccc4)c4cccc(OCCOCCF)c4)CC3)cc2N1 [Example 66, 6-[4-[(R)-[3-[2-(2-fluoroethoxy)ethoxy]phenyl]-phenyl-methyl]piperidine-1-carbonyl]-4H-1,4-benzoxazin-3-one]
0.65 | O=C1COc2ccc(C(=O)N3CCC([C@@H](c4ccccc4)c4cccc(OCCOCCF)c4)CC3)cc2N1 [Example 67, 6-[4-[(S)-[3-[2-(2-fluoroethoxy)ethoxy]phenyl]-phenyl-methyl]piperidine-1-carbonyl]-4H-1,4-benzoxazin-3-one]
0.55 | O=C1COc2ccc(C(=O)N3CCC(C(c4ccccc4)c4cccc(OCCF)c4)CC3)cc2N1 (centres unmarked) [Example 72, 6-[4-[[3-(2-fluoroethoxy)phenyl]-phenyl-methyl]piperidine-1-carbonyl]-4H-1,4-benzoxazin-3-one]
0.73 | O=C1COc2ccc(C(=O)N3CCC(C(c4ccccc4)c4ccc(OCCF)cc4)CC3)cc2N1 (centres unmarked) [Example 73, 6-[4-[[4-(2-fluoroethoxy)phenyl]-penyl-methyl]piperidine-1-carbonyl]-4H-1,4-benzoxazin-3-one]
0.56 | O=C1COc2ccc(C(=O)N3CCC([C@@H](c4ccccc4)c4cccc(F)c4)CC3)cc2N1 [Example 74, 6-[4-[(S)-(3-fluorophenyl)-phenyl-methyl]piperidine-1-carbonyl]-4H-1,4-benzoxazin-3-one]

Further lines, the molecule ahead of its results:

SMILES | IC50 [nM]
Cn1cc(C2CCN(C(=O)c3ccc4c(c3)NC(=O)CO4)CC2)c2cc(Cl)ccc21 [Example 29] | 1.7
Cn1cc(C2CCN(C(=O)c3ccc4c(c3)NC(=O)CO4)CC2)c2ccc(Cl)cc21 [Example 30, 6-[4-(6-chloro-1-methylindol-3-yl)piperidine-1-carbonyl]-4H-1,4-benzoxazin-3-one] | 22.9
Cn1cc(C2CCN(C(=O)c3ccc4c(c3)NC(=O)CO4)CC2)c2ccccc21 [Example 31, 6-[4-(1-methylindol-3-yl)piperidine-1-carbonyl]-4H-1,4-benzoxazin-3-one] | 28.9
O=C1COc2ccc(C(=O)N3CCC(c4cn(C5CC5)c5cc(Cl)ccc45)CC3)cc2N1 [Example 34, 6-[4-(6-chloro-1-cyclopropylindol-3-yl)piperidine-1-carbonyl]-4H-1,4-benzoxazin-3-one] | 36
O=C1COc2ccc(C(=O)N3CCC(c4cn(Cc5cccc(Cl)c5)c5ccccc45)CC3)cc2N1 [Example 35, 6-[4-[l-[(3-chlorophenyl)methyl]indol-3-yl]piperidine-1-carbonyl]-4H-1,4-benzoxazin-3-one] | 37
O=C1COc2ccc(C(=O)N3CCC(c4n[nH]c5ccccc45)CC3)cc2N1 [Example 36, 6-[4-(1H-indazol-3-yl)piperidine-1-carbonyl]-4H-1,4-benzoxazin-3-one] | 158
O=C1COc2ccc(C(=O)N3CCC(c4nn(CCO)c5cc(F)ccc45)CC3)cc2N1 [Example 37, 6-[4-[6-fluoro-1-(2-hydroxyethyl)indazol-3-yl]piperidine-1-carbonyl]-4H-1,4-benzoxazin-3-one] | 350
CC(C)n1nc(C2CCN(C(=O)c3ccc4c(c3)NC(=O)CO4)CC2)c2ccc(F)cc21 [Example 38, 6-[4-(6-fluoro-1-propan-2-ylindazol-3-yl)piperidine-1-carbonyl]-4H-1,4-benzoxazin-3-one] | 86
Cn1nc(C2CCN(C(=O)c3ccc4c(c3)NC(=O)CO4)CC2)c2ccc(Cl)cc21 [Example 39, 6-[4-(6-chloro-1-methylindazol-3-yl)piperidine-1-carbonyl]-4H-1,4-benzoxazin-3-one] | 84
O=C1COc2ccc(C(=O)N3CCC(c4cc5ccccc5[nH]4)CC3)cc2N1 [Example 40, 6-[4-(1H-indol-2-yl)piperidine-1-carbonyl]-4H-1,4-benzoxazin-3-one] | 550
COc1ccc2[nH]c(C)c(C3CCN(C(=O)c4ccc5c(c4)NC(=O)CO5)CC3)c2c1 [Example 41, 6-[4-(5-methoxy-2-methyl-1H-indol-3-yl)piperidine-1-carbonyl]-4H-1,4-benzoxazin-3-one] | 440
O=C1COc2ccc(C(=O)N3CCC(c4csc5ccccc45)CC3)cc2N1 [Example 42, 6-[4-(1-benzothiophen-3-yl)piperidine-1-carbonyl]-4H-1,4-benzoxazin-3-one] | 97
O=C1COc2ccc(C(=O)N3CCC(c4n[nH]c5cc(F)ccc45)CC3)cc2N1 [Example 43, 6-[4-(6-fluoro-1H-indazol-3-yl)piperidine-1-carbonyl]-4H-1,4-benzoxazin-3-one] | 180
O=C1COc2ccc(C(=O)N3CCC(c4cc(-c5ccc(Cl)cc5)[nH]n4)CC3)cc2N1 [Example 44, 6-[4-[5-(4-chlorophenyl)-1H-pyrazol-3-yl]piperidine-1-carbonyl]-4H-1,4-benzoxazin-3-one] | 390
O=C1COc2ccc(C(=O)N3CCC(c4c[nH]c5ncccc45)CC3)cc2N1 [Example 45, 6-[4-(1H-pyrrolo[2,3-b]pyridin-3-yl)piperidine-1-carbonyl]-4H-1,4-benzoxazin-3-one] | 220
O=C1COc2ccc(C(=O)N3CCC(c4cc5ccc(Cl)cc5[nH]4)CC3)cc2N1 [Example 46, 6-[4-(6-chloro-1H-indol-2-yl)piperidine-1-carbonyl]-4H-1,4-benzoxazin-3-one] | 1110

From patent publication US11420961B2, “Heterocyclic compounds” (Hoffmann-La Roche Inc., priority 2017, dated 2022)
